This note sets out measurements from patent US4738986A, “N-(3-phenoxycinnamyl)acetohydroxamic acid” (Burroughs Wellcome Co., priority 1985, dated 1988).

Assay [1] has as its target T1, Cyclooxygenase (CO) (Homo sapiens, UniProt P23219).
T1 construct: The leukocytes were homogenised and 5 μM arachidonic acid added; endogenous in cells; host or cells: leukocytes from blood of normal aspirin-free volunteers, separated from red cells and platelets by centrifugation, homogenised
As to the kind of experiment: In vitro inhibition of cyclooxygenase (CO): thromboxane release from arachidonic acid in leukocyte homogenate, radioimmunoassay. It is filed as biochemical. To be noted: volunteers' blood, 5 μM arachidonic acid, 37°, 5 minutes, thromboxane B4 RIA. How it is done: (§1) In vitro inhibition of 5-lipoxygenase (LO) and Cyclooxygenase (CO)
(§2) Blood from normal aspirin-free volunteers was centrifuged to separate leukocytes from red cells and platelets. The leukocytes were homogenised and 5 μM arachidonic acid added, followed by incubation at 37° for 5 minutes. The reaction was stopped by boiling. Radioimmunoassay was conducted for leukotriene B4 (an LO product) and […] (a CO product). Results were calculated as IC50 μM activity against each enzyme and as listed below.

Assay [2] deals with T2, 5-lipoxygenase (LO) (Homo sapiens, UniProt P09917).
T2 construct: The leukocytes were homogenised and 5 μM arachidonic acid added; endogenous in cells; host or cells: leukocytes from blood of normal aspirin-free volunteers, separated from red cells and platelets by centrifugation, homogenised
T2 sequence (P09917 1-674): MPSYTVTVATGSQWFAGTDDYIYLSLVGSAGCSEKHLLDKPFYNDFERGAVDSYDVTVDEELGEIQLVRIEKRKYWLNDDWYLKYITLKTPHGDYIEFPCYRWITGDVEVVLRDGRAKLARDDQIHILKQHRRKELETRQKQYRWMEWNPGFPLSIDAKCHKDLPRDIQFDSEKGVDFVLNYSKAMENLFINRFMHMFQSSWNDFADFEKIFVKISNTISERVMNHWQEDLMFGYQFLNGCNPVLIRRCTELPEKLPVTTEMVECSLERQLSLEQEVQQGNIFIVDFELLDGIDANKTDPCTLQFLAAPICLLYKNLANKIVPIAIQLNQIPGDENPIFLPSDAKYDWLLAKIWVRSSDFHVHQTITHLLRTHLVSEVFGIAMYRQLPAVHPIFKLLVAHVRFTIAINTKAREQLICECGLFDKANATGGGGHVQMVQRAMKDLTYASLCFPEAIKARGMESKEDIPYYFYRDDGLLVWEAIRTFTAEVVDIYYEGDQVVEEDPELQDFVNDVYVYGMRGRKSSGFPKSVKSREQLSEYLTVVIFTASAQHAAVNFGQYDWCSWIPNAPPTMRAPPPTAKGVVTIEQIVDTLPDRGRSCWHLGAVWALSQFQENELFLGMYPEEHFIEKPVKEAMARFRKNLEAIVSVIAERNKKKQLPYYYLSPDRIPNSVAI
Put plainly: In vitro inhibition of 5-lipoxygenase (LO): leukotriene B4 from arachidonic acid in leukocyte homogenate, radioimmunoassay. It is filed as biochemical. To be noted: volunteers' blood, 5 μM arachidonic acid, 37°, 5 minutes, leukotriene B4 RIA. The procedure: as §1, §2

As usually defined, the IC50 is the concentration at which inhibition is half-maximal.

T1 sequence (P23219 24-599): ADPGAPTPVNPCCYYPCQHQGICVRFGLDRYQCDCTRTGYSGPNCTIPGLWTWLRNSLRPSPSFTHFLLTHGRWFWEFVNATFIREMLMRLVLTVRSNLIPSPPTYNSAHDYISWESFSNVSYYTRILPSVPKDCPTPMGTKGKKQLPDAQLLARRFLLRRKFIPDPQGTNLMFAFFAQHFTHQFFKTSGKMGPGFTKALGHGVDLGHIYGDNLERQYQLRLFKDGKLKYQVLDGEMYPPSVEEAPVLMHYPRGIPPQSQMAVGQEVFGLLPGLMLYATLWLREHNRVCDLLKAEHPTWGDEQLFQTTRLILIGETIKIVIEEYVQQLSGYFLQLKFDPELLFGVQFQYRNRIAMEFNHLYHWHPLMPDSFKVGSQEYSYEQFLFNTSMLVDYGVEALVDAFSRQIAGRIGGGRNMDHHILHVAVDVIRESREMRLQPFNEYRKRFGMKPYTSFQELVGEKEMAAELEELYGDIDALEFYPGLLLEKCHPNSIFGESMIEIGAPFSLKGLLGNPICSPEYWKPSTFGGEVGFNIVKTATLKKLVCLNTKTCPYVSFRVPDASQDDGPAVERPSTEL

As for “3-Phenoxy-N-methylcinnamohydroxamic Acid [Example 1]”, the IC50 in assay [1] is 3 µM; in assay [2], less than 0.1 µM.
